Laboratory results taken from US7566712B2, “Biaryl piperazinyl-pyridine analogues” (Neurogen Corporation, priority 2003, dated 2009).
pIC50: −log10 of the molar value.

Molecular target: T1, human capsaicin receptor (Homo sapiens, UniProt Q8NER1)
T1 construct: pBK-CMV expression construct encoding the full length human capsaicin receptor; expressed in transfected cells
Experiment: Calcium mobilization assay, determination of antagonist activity (Example 6)
Assay type: cell-based
Conditions: Table II
How it was run: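 Antagonism measured as inhibition of capsaicin-evoked (final concentration = EC50, from an 8-point 1 nM–3 μM curve) Fluo-3 calcium signal in stable hVR1-HEK293 cells. Test compounds at 1–5 μM final, 0.5–6 h dark preincubation at room temperature. IC50 = concentration giving 50% reduction versus agonist-only response.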

[1] = determined as described in Example 6 (antagonist activity), "*" = 1 micromolar or less
[2] = determined as described in Example 6 (calcium mobilization, antagonist activity)
[3] = IC50 determined as described in Example 6

T1 sequence (Q8NER1 whole entry): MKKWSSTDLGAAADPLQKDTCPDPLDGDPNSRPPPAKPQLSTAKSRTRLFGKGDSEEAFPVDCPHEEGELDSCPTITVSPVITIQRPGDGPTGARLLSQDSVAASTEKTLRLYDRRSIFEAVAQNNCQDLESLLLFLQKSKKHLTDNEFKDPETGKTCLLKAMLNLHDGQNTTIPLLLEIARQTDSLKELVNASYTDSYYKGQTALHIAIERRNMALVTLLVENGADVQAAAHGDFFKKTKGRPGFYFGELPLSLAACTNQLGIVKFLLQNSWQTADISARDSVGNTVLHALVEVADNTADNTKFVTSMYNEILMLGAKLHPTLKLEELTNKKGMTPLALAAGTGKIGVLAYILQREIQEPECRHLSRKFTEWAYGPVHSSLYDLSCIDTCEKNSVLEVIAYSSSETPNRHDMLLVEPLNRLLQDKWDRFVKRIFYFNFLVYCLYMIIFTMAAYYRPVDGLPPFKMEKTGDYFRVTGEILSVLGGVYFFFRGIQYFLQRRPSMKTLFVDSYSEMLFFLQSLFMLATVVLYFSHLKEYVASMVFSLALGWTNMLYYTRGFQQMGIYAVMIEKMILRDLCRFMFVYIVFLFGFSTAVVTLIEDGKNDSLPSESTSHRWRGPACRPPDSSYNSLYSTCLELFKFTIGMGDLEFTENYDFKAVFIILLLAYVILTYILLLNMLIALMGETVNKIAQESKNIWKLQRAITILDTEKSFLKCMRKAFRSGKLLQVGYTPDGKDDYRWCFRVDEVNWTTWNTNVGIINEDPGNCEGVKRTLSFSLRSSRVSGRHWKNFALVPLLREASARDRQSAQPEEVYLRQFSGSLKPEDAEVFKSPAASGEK

pIC50 [1]	pIC50 [2]	Compound	further results
≥ 6.00	–	C[C@@H]1CN(c2nccnc2Cl)CCN1c1cc(-c2ccc(F)c(F)c2)nc(N2CCCC2)n1 [Example 820, 4-[(2R)-4-(3-chloropyrazin-2-yl)-2-methylpiperazin-1-yl]-6-(3,4-difluorophenyl)-2-pyrrolidin-1-ylpyrimidine]	–
≥ 6.00	–	C[C@@H]1CCCN1c1nc(-c2ccc(F)c(F)c2)cc(N2CCN(c3ncccc3Cl)C[C@@H]2C)n1 [Example 930, 4-[(2S)-4-(3-chloropyridin-2-yl)-2-methylpiperazin-1-yl]-6-(3,4-difluorophenyl)-2-[(2R)-2-methylpyrrolidin-1-yl]pyrimidine]	–
≥ 6.00	–	CC1CCCN1c1nc(-c2cncc(C#N)c2)cc(N2CCN(c3ncccc3Cl)C[C@H]2C)n1 (stereo partly drawn) [Example 880, 5-[6-[4-(3-chloropyridin-2-yl)-2-methylpiperazin-1-yl]-2-(2-methylpyrrolidin-1-yl)pyrimidin-4-yl]nicotinonitrile]	–
–	≥ 6.00	Cc1cc(-c2cc(N3CCN(c4ncccc4C(F)(F)F)C[C@H]3C)nc(N3CCCCC3C)n2)ccc1F (stereo partly drawn) [Example 770, 4-(4-fluoro-3-methylphenyl)-2-(2-methylpiperidin-1-yl)-6-{(2R)-2-methyl-4-[3-(trifluoromethyl)pyridin-2-yl]piperazin-1-yl}pyrimidine]	–
–	≥ 6.00	CC1CCCN1c1nc(-c2ccc(F)c(Cl)c2)cc(N2CCN(c3ncccc3F)CC2)n1 (stereo not drawn) [Example 707, 4-(3-chloro-4-fluorophenyl)-6-(4-(3-fluoropyridin-2-yl)piperazin-1-yl]-2-(2-methylpyrrolidin-1-yl)pyrimidine]	–
≥ 6.00	–	OCCCc1cccc(-c2cc(N3CCN(c4ncccc4C(F)(F)F)CC3)nc(N3CCOCC3)n2)c1 [Example 850, 3-[3-(2-morpholin-4-yl-6-{4-[3-(trifluoromethyl)pyridin-2-yl]piperazan-1-yl}pyrimidin-4-yl)phenyi]propan-1-ol]	–
–	–	COC[C@@H]1CCCN1c1nc(-c2ccc(F)c(Cl)c2)cc(N2CCN(c3ncccc3C(F)(F)F)CC2)n1 [Example 550, 4-(3-chloro-4-fluorophenyl)-2-[(2S)-2-(methoxymethyl)pyrrolidin-1-yl]-6-{4-[3-(trifluoromethyl)pyridin-2-yl]piperazin-1-yl}pyrimidine]	pIC50 [3]: ≥ 6.00
–	–	CCc1cccc(-c2cc(N3CCN(c4ncccc4C)C[C@H]3C)nc(N3CCOCC3)n2)c1 [Example 515, 4-{4-(3-ethylphenyl)-6-[(2R)-2-methyl-4-(3-methylpyridin-2-yl)piperazin-1-yl]pyrimidin-2-yl}morpholine]	pIC50 [3]: ≥ 6.00
–	–	Fc1ccc(-c2cc(N3CCN(c4ncccc4C(F)(F)F)CC3)nc(OCC3CC3)n2)cc1Cl [Example 553, 4-(3-chloro-4-fluorophenyl)-2-(cyclopropylmethoxy)-6-{4-[3-(trifluoromethyl)pyridin-2-yl]piperazin-1-yl}pyrimidine]	pIC50 [3]: ≥ 6.00
≥ 6.00	–	CCCN1CCN(c2nc(-c3ccc(F)c(Cl)c3)cc(N3CCN(c4ncccc4C)CC3)n2)CC1 [Example 889, 4-(3-chloro-4-fluorophenyl)-6-[4-(3-methylpyridin-2-yl)piperazin-1-yl]-2-(4-propylpiperazin-1-yl)pyrimidine]	–
≥ 6.00	–	Cc1cc(-c2cc(N3CCN(c4nccnc4Cl)C[C@H]3C)nc(Cl)n2)ccc1F [Example 912, 2-chloro-4-[(2R)-4-(3-chloropyrazin-2-yl)-2-methylpiperazin-1-yl]-6-(4-fluoro-3-methylphenyl)pyrimidine]	–
≥ 6.00	–	C[C@H]1CN(c2ncccc2Cl)CCN1c1cc(-c2ccc(F)c(F)c2)nc(N2CCOCC2)n1 [Example 923, 4-[4-[(2S)-4-(3-chloropyridin-2-yl)-2-methylpiperazin-1-yl]-6-(3,4-difluorophenyl)pyrimidin-2-yl]morpholine]	–
–	≥ 6.00	CC1CN(c2nc(-c3ccc(F)c(Cl)c3)cc(N3CCN(c4ncccc4C(F)(F)F)CC3)n2)CCN1 (stereo not drawn) [Example 614, 4-(3-chloro-4-fluorophenyl)-2-(3-methylpiperazin-1-yl)-6-{4-[3-(trifluoromethyl)pyridin-2-yl]piperazin-1-yl}pyrimidine]	–
–	–	COC(CN(C)c1nc(-c2ccc(F)c(Cl)c2)cc(N2CCN(c3ncccc3C(F)(F)F)CC2)n1)OC [Example 548, 4-(3-chloro-4-fluorophenyl)-N-(2,2-dimethoxyethyl)-N-methyl-6-{4-[3-(trifluoromethyl)pyridin-2-yl]piperazin-1-yl}pyrimidin-2-amine]	pIC50 [3]: ≥ 6.00
≥ 6.00	–	CC1CCCN1c1nc(-c2ccc(F)c(Cl)c2)cc(N2CCN(c3ncccc3Cl)CC2=O)n1 (stereo not drawn) [Example 853, 1-[6-(3-chloro-4-fluorophenyl)-2-(2-methylpyrrolidin-1-yl)pyrimidin-4-yl]-4-(3-chloropyridin-2-yl)piperazin-2-one]	–
–	–	N#Cc1ccc(-c2nc(N3CCOCC3)nc(N3CCN(c4ncccc4C(F)(F)F)CC3)n2)cc1 [Example 436, 4-(4-morpholin-4-yl-6-{4-[3-(trifluoromethyl)pyridin-2-yl]piperazin-1-yl}-1,3,5-triazin-2-yl)benzonitrile]	pIC50 [3]: ≥ 6.00
–	≥ 6.00	CN(c1nc(-c2ccc(F)c(Cl)c2)cc(N2CCN(c3ncccc3C(F)(F)F)CC2)n1)C1CCCCC1 [Example 578, 4-(3-chloro-4-fluorophenyl)-N-cyclohexyl-N-methyt-6-{4-[3-(trifluoromethyl)pyridin-2-yl]piperazin-1-yl}pyrimidin-2-amine]	–
–	≥ 6.00	CCN(C)c1nc(-c2ccc(F)c(C)c2)cc(N2CCN(c3ncccc3C(F)(F)F)CC2)n1 [Example 738, N-ethyl-4-(4-fluoro-3-methylphenyl)-N-methyl-6-{4-[3-(trifluoromethyl)pyridin-2-yl]piperazin-1-yl)pyrimidin-2-amine]	–
–	≥ 6.00	Cc1cc(-c2cc(N3CCN(c4ncccc4C)CC3)nc(N3CCCC3C)n2)ccc1F (stereo not drawn) [Example 696, 4-(4-fluoro-3-methylphenyl)-6-[4-(3-methylpyridin-2-yl)piperazin-1-yl]-2-(2-methylpyrrolidin-1-yl)pyrimidine]	–
–	–	C[C@@H]1CN(c2nccnc2Cl)CCN1c1cc(-c2ccc(F)c(Cl)c2)nc(N2CCOC[C@@H]2C)n1 [Example 1003, (3S)-4-{4-(3-chloro-4-fluorophenyl)-6-[(2R)-4-(3-chloropyrazin-2-yl)-2-methylpiperazin-1-yl]pyrimidin-2-yl}-3-methylmorpholine]	pIC50 (IC50 determined as described in Example 6 (antagonist activity, calcium mobilization)): ≥ 6.00
–	–	Cc1cccnc1N1CCN(c2cc(-c3cccc(C(C)C)c3)nc(N3CCOCC3)n2)[C@H](C)C1 [Example 500, 4-{4-(3-isopropylphenyl)-6-[(2R)-2-methyl-4-(3-methylpyridin-2-yl)piperazin-1-yl]pyrimidin-2-yl}morpholine]	pIC50 [3]: ≥ 6.00
–	≥ 6.00	COC[C@@H]1CCCN1c1nc(-c2ccc(F)c(C)c2)cc(N2CCN(c3ncccc3Cl)C[C@H]2C)n1 [Example 729, 4-[(2R)-4-(3-chloropyridin-2-yl)-2-methylpiperazin-1-yl]-6-(4-fluoro-3-methylphenyl)-2-[(2S)-2-(methoxymethyl)pyrrolidin-1-yl]pyrimidine]	–
≥ 6.00	–	CC1CCCN1c1nc(-c2ccc(F)cc2)cc(N2CCN(c3ncccc3C(F)(F)F)C[C@H]2C)n1 (stereo partly drawn) [Example 783, 4-(4-fluorophenyl)-2-(2-methylpyrrolidin-1-yl)-6-{(2R)-2-methyl-4-[3-(trifluoromethyl)pyridin-2-yl]piperazin-1-yl}pyrimidine]	–
–	≥ 6.00	CCc1nccn1-c1nc(-c2ccc(F)c(Cl)c2)cc(N2CCN(c3ncccc3C(F)(F)F)CC2)n1 [Example 648, 4-(3-chloro-4-fluorophenyl)-2-(2-ethyl-1H-imidazol-1-yl)-6-{4-[3-(trifluoromethyl)pyridin-2-yl]piperazin-1-yl}pyrimidine]	–
≥ 6.00	–	C[C@@H]1CCCN1c1nc(-c2ccc(Cl)c(F)c2)cc(N2CCN(c3ncccc3Cl)C[C@@H]2C)n1 [Example 958, 4-(4-chloro-3-fluorophenyl)-6-[(2S)-4-(3-chloropyridin-2-yl)-2-methylpiperazin-1-yl]-2-[(2R)-2-methylpyrrolidin-1-yl]pyrimidine]	–
≥ 6.00	–	CCCN1CCN(c2nc(-c3cncc(Cl)c3)cc(N3CCN(c4ncccc4Cl)C[C@H]3C)n2)CC1 [Example 838, 4-(5-chloropyridin-3-yl)-6-[(2R)-4-(3-chloropyridin-2-yl)-2-methylpiperazin-1-yl]-2-(4-propylpiperazin-1-yl)pyrimidine]	–
–	≥ 6.00	COC[C@H]1CCCN1c1nc(-c2ccc(F)c(C)c2)cc(N2CCN(c3ncccc3Cl)C[C@H]2C)n1 [Example 728, 4-[(2R)-4-(3-chloropyridin-2-yl)-2-methylpiperazin-1-yl]-6-(4-fluoro-3-methylphenyl)-2-[(2R)-2-(methoxymethyl)pyrrolidin-1-yl]pyrimidine]	–
–	–	C=CCN1CCN(c2nc(-c3ccc(Cl)cc3)nc(N3CCN(c4ncccc4C(F)(F)F)CC3)n2)CC1 [Example 445, 2-(4-allylpiperazin-1-yl)-4-(4-chlorophenyl)-6-{4-[3-(trifluoromethyl)pyridin-2-yl]piperazin-1-yl}-1,3,5-triazine]	pIC50 [3]: ≥ 6.00
≥ 6.00	–	C[C@@H]1CCCN1c1nc(-c2ccc(F)c(F)c2)cc(N2CCN(c3nccnc3Cl)C[C@@H]2C)n1 [Example 951, 4-[(2S)-4-(3-chloropyrazin-2-yl)-2-methylpiperazin-1-yl]-6-(3,4-difluorophenyl)-2-[(2R)-2-methylpyrrolidin-1-yl]pyrimidine]	–
≥ 6.00	–	C[C@@H]1CCCN1c1cc(-c2ccc(F)c(Cl)c2)nc(N2CCN(c3ncccc3Cl)C[C@@H]2C)n1 [Example 948, 4-(3-chloro-4-fluorophenyl)-2-[(2S)-4-(3-chloropyridin-2-yl)-2-methylpiperazin-1-yl]-6-[(2R)-2-methylpyrrolidin-1-yl]pyrimidine]	–
